For nine compounds, IC50 results are on record in patent US20260022142A1, “MACROCYCLIC IMMUNOMODULATORS” (Bristol-Myers Squibb Company, priority 2022, published 2026).

Bridge positions count the residues as written; N and C are the ends. Square brackets hold non-standard residues; d marks the D form. Peptide text beside a SMILES is read from it. * marks the point of attachment. ξ: configuration not given here. Phe(4-CONH2) = NC(=O)c1ccc(C[C@H](N)C(=O)O)cc1; Bip = N[C@@H](Cc1ccc(-c2ccccc2)cc1)C(=O)O; Phe(3-Me) = Cc1cccc(C[C@H](N)C(=O)O)c1; Phe(4-F) = N[C@@H](Cc1ccc(F)cc1)C(=O)O; Val(3-OH) = CC(C)(O)[C@H](N)C(=O)O; 4Pal = N[C@@H](Cc1ccncc1)C(=O)O; Cha = N[C@@H](CC1CCCCC1)C(=O)O; Thr(3ξ) = CC(O)[C@H](N)C(=O)O; Carboxymethyl = O=C(O)C*; Orn = NCCC[C@H](N)C(=O)O; Aun = NCCCCCCCCCCC(=O)O; Dab = NCC[C@H](N)C(=O)O; AEEA = NCCOCCOCC(=O)O

T1 sequence (Q15116 25-288): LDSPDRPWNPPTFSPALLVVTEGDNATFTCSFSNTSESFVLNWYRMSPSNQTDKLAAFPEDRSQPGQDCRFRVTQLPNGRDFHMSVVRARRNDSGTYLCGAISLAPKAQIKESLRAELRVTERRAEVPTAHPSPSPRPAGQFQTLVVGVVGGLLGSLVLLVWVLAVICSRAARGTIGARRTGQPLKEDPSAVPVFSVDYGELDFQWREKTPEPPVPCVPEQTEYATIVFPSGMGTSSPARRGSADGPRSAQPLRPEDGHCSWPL

This experiment concerns the target T1, PD-1/PD-L1 interaction (PE-labeled human PD-L1-Ig binding to Jurkat cell line over-expressing human PD-1) (Homo sapiens, UniProt Q15116).
T1 construct: expressed in transfected cells; host or cells: Jurkat
The experiment in a line: Jurkat-PD-1 Cell Binding High-Content Screening Assay (CBA). The experiment is classed as cell-based. The conditions noted are these: Jurkat cell line over-expressing human PD-1; PE-labeled PD-L1-Ig 20 nM final; read-out: Jurkat hPD1-PDL1 IC50. In short, it runs like this: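 Human PD-L1-Ig carrying a covalent PE label on its Ig tag serves as the probe, applied at 20 nM final to compound-treated (2 h, 37° C) Jurkat-hPD-1 cells in medium with 10% fetal calf serum. After one hour, fixation and nuclear staining precede high-content image analysis.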
Take `Cc1cccc(C[C@@H]2NC(=O)[C@H](CC(=O)O)NC(=O)[C@H](Cc3ccc(OCC(=O)O)cc3)NC(=O)[C@H](Cc3ccncc3)NC(=O)CSC[C@@H](C(=O)N[C@@H](CO)C(=O)NCCCCCCCCCCC(=O)O)NC(=O)[C@H](C(C)O)NC(=O)[C@H](C(C)(C)O)NC(=O)[C@H](CC3CCCCC3)NC(=O)[C@H](CCN)NC(=O)[C@@H](CC(C)C)NC(=O)[C@H](CCCN)NC(=O)[C@H](Cc3ccc(O)cc3)NC(=O)[C@H](Cc3ccc(-c4ccccc4)cc3)NC(=O)[C@H](Cc3ccc(C(N)=O)cc3)NC2=O)c1` (stereo partly drawn) [Compound 3726] ({CH2CO}-[4Pal]Y(Carboxymethyl)D[Phe(3-Me)][Phe(4-CONH2)][Bip]Y[Orn][dL][Dab][Cha][Val(3-OH)][Thr(3ξ)]CS[Aun]-OH; thioether N-14): the IC50 (commonly the concentration needed to halve the response being measured) turned out to be 13.1 nM.

As to `Cc1cccc(C[C@@H]2NC(=O)[C@H](CC(=O)O)NC(=O)[C@H](Cc3ccc(OCC(=O)O)cc3)NC(=O)[C@H](CCN)NC(=O)CSC[C@@H](C(=O)NCCOCCOCC(=O)NCCCCCCCCCCC(=O)O)NC(=O)[C@H](C(C)O)NC(=O)[C@H](C(C)(C)O)NC(=O)[C@H](CC3CCCCC3)NC(=O)[C@H](CCN)NC(=O)[C@@H](CC(C)C)NC(=O)[C@H](CCCN)NC(=O)[C@H](Cc3ccc(O)cc3)NC(=O)[C@H](Cc3ccc(-c4ccccc4)cc3)NC(=O)[C@H](Cc3ccc(C(N)=O)cc3)NC2=O)c1` (stereo partly drawn) [Compound 3727] ({CH2CO}-[Dab]Y(Carboxymethyl)D[Phe(3-Me)][Phe(4-CONH2)][Bip]Y[Orn][dL][Dab][Cha][Val(3-OH)][Thr(3ξ)]C[AEEA][Aun]-OH; thioether N-14), the IC50 was 50.4 nM.

With `Cc1cccc(C[C@@H]2NC(=O)[C@H](CC(=O)O)NC(=O)[C@H](Cc3ccc(OCC(=O)O)cc3)NC(=O)[C@H](Cc3ccncc3)NC(=O)CSC[C@@H](C(=O)N[C@@H](CCN)C(=O)NCCCCCCCCCCC(=O)O)NC(=O)[C@H](C(C)O)NC(=O)[C@H](C(C)(C)O)NC(=O)[C@H](CC3CCCCC3)NC(=O)[C@H](Cc3cnc[nH]3)NC(=O)[C@@H](CC(C)C)NC(=O)[C@H](CCCN)NC(=O)[C@H](Cc3ccc(O)cc3)NC(=O)[C@H](Cc3ccc(-c4ccccc4)cc3)NC(=O)[C@H](Cc3ccc(C(N)=O)cc3)NC2=O)c1` (stereo partly drawn) [Compound 3728] ({CH2CO}-[4Pal]Y(Carboxymethyl)D[Phe(3-Me)][Phe(4-CONH2)][Bip]Y[Orn][dL]H[Cha][Val(3-OH)][Thr(3ξ)]C[Dab][Aun]-OH; thioether N-14), the IC50 came to 25.6 nM.

Regarding `Cc1cccc(C[C@@H]2NC(=O)[C@H](CC(=O)O)NC(=O)[C@H](Cc3ccc(OCC(=O)O)cc3)NC(=O)[C@H](C(C)O)NC(=O)CSC[C@@H](C(=O)N[C@@H](CCN)C(=O)NCCCCCCCCCCC(=O)O)NC(=O)[C@H](C(C)O)NC(=O)[C@H](C(C)(C)O)NC(=O)[C@H](CC3CCCCC3)NC(=O)[C@H](Cc3cnc[nH]3)NC(=O)[C@@H](CC(C)C)NC(=O)[C@H](CCCN)NC(=O)[C@H](Cc3ccc(O)cc3)NC(=O)[C@H](Cc3ccc(-c4ccccc4)cc3)NC(=O)[C@H](Cc3ccc(C(N)=O)cc3)NC2=O)c1` (stereo partly drawn) [Compound 3729] ({CH2CO}-[Thr(3ξ)]Y(Carboxymethyl)D[Phe(3-Me)][Phe(4-CONH2)][Bip]Y[Orn][dL]H[Cha][Val(3-OH)][Thr(3ξ)]C[Dab][Aun]-OH; thioether N-14), the IC50 came out at 30.3 nM.

With `Cc1cccc(C[C@@H]2NC(=O)[C@H](CC(=O)O)NC(=O)[C@H](Cc3ccc(OCC(=O)O)cc3)NC(=O)[C@H](Cc3ccncc3)NC(=O)CSC[C@@H](C(=O)NCCOCCOCC(=O)NCCCCCCCCCCC(=O)O)NC(=O)[C@H](C(C)O)NC(=O)[C@H](C(C)(C)O)NC(=O)[C@H](CC3CCCCC3)NC(=O)[C@H](CCN)NC(=O)[C@@H](CC(C)C)NC(=O)[C@H](CCCN)NC(=O)[C@H](Cc3ccc(O)cc3)NC(=O)[C@H](Cc3ccc(-c4ccccc4)cc3)NC(=O)[C@H](Cc3ccc(C(N)=O)cc3)NC2=O)c1` (stereo partly drawn) [Compound 3730] ({CH2CO}-[4Pal]Y(Carboxymethyl)D[Phe(3-Me)][Phe(4-CONH2)][Bip]Y[Orn][dL][Dab][Cha][Val(3-OH)][Thr(3ξ)]C[AEEA][Aun]-OH; thioether N-14), the IC50 worked out at 22.8 nM.

In the case of `Cc1cccc(C[C@@H]2NC(=O)[C@H](CC(=O)O)NC(=O)[C@H](Cc3ccc(OCC(=O)O)cc3)NC(=O)[C@H](CCN)NC(=O)CSC[C@@H](C(=O)N[C@@H](CCN)C(=O)NCCCCCCCCCCC(=O)O)NC(=O)[C@H](CO)NC(=O)[C@H](C(C)(C)O)NC(=O)[C@H](CC3CCCCC3)NC(=O)[C@H](Cc3cnc[nH]3)NC(=O)[C@@H](CC(C)C)NC(=O)[C@H](CCCN)NC(=O)[C@H](Cc3ccc(OCC(=O)O)cc3)NC(=O)[C@H](Cc3ccc(-c4ccccc4)cc3)NC(=O)[C@H](Cc3ccc(F)cc3)NC2=O)c1` [Compound 3731] ({CH2CO}-[Dab]Y(Carboxymethyl)D[Phe(3-Me)][Phe(4-F)][Bip]Y(Carboxymethyl)[Orn][dL]H[Cha][Val(3-OH)]SC[Dab][Aun]-OH; thioether N-14), the IC50 came out at 16.9 nM.

As to `Cc1cccc(C[C@@H]2NC(=O)[C@H](CC(=O)O)NC(=O)[C@H](Cc3ccc(F)cc3)NC(=O)[C@H](CCN)NC(=O)CSC[C@@H](C(=O)N[C@@H](CCN)C(=O)NCCCCCCCCCCC(=O)O)NC(=O)[C@H](CO)NC(=O)[C@H](C(C)(C)O)NC(=O)[C@H](CC3CCCCC3)NC(=O)[C@H](Cc3cnc[nH]3)NC(=O)[C@@H](CC(C)C)NC(=O)[C@H](CCCN)NC(=O)[C@H](Cc3ccc(OCC(=O)O)cc3)NC(=O)[C@H](Cc3ccc(-c4ccccc4)cc3)NC(=O)[C@H](Cc3ccc(OCC(=O)O)cc3)NC2=O)c1` [Compound 3732] ({CH2CO}-[Dab][Phe(4-F)]D[Phe(3-Me)]Y(Carboxymethyl)[Bip]Y(Carboxymethyl)[Orn][dL]H[Cha][Val(3-OH)]SC[Dab][Aun]-OH; thioether N-14), the concentration for half-maximal inhibition (IC50) was 56.2 nM.

As to `Cc1cccc(C[C@@H]2NC(=O)[C@H](CC(=O)O)NC(=O)[C@H](Cc3ccc(OCC(=O)O)cc3)NC(=O)[C@H](Cc3ccncc3)NC(=O)CSC[C@@H](C(=O)N[C@@H](CCN)C(=O)NCCCCCCCCCCC(=O)O)NC(=O)[C@H](CO)NC(=O)[C@H](C(C)(C)O)NC(=O)[C@H](CC3CCCCC3)NC(=O)[C@H](Cc3c[nH]cn3)NC(=O)[C@@H](CC(C)C)NC(=O)[C@H](CCCN)NC(=O)[C@H](Cc3ccc(OCC(=O)O)cc3)NC(=O)[C@H](Cc3ccc(-c4ccccc4)cc3)NC(=O)[C@H](Cc3ccc(F)cc3)NC2=O)c1` [Compound 3733] ({CH2CO}-[4Pal]Y(Carboxymethyl)D[Phe(3-Me)][Phe(4-F)][Bip]Y(Carboxymethyl)[Orn][dL]H[Cha][Val(3-OH)]SC[Dab][Aun]-OH; thioether N-14), the IC50 was found to be 115 nM.

Regarding `Cc1cccc(C[C@@H]2NC(=O)[C@H](CC(=O)O)NC(=O)[C@H](Cc3ccc(F)cc3)NC(=O)[C@H](Cc3ccncc3)NC(=O)CSC[C@@H](C(=O)N[C@@H](CCN)C(=O)NCCCCCCCCCCC(=O)O)NC(=O)[C@H](CO)NC(=O)[C@H](C(C)(C)O)NC(=O)[C@H](CC3CCCCC3)NC(=O)[C@H](Cc3c[nH]cn3)NC(=O)[C@@H](CC(C)C)NC(=O)[C@H](CCCN)NC(=O)[C@H](Cc3ccc(OCC(=O)O)cc3)NC(=O)[C@H](Cc3ccc(-c4ccccc4)cc3)NC(=O)[C@H](Cc3ccc(OCC(=O)O)cc3)NC2=O)c1` [Compound 3734] ({CH2CO}-[4Pal][Phe(4-F)]D[Phe(3-Me)]Y(Carboxymethyl)[Bip]Y(Carboxymethyl)[Orn][dL]H[Cha][Val(3-OH)]SC[Dab][Aun]-OH; thioether N-14), the IC50 was 128 nM.
